Source: paper PMC11845477, “Exploring the principles behind antibiotics with limited resistance” (Nature Communications, 2025)
Where a SMILES comes first, the peptide text is derived from it. Bridges are numbered along the chain shown (N, C = ends). [ ]: non-standard residue; d: D form. The star is where a group is joined. X1 = NC[C@@H](CC(=O)*)c1cccc(Cl)c1; Dab = NCC[C@H](N)C(=O)O; Dap = NC[C@H](N)C(=O)O

Key:
[1] = system: E. coli ATCC 25922 (SEN) and E. coli NCTC13846 (MDR); assay: microbe, parasite or virus in culture; type: cell-based, Escherichia coli; conditions: for MIC: across three biological replicates
Method in brief: (§1)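 Broth microdilution in cation-adjusted Mueller-Hinton Broth 2 (except SCH79797), 11–16-step serial dilutions, 5 × 10^5 cells/mL, 37 °C with shaking for 18 h, 2 replicates. MIC is the lowest concentration giving complete growth inhibition (OD600 < 0.05); relative MIC = MIC evolved/MIC ancestor.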

[2] = system: K. pneumoniae ATCC 10031 (SEN) and K. pneumoniae ATCC 700603 (MDR); assay: microbe, parasite or virus in culture; type: cell-based, Klebsiella pneumoniae; conditions: for MIC: across three biological replicates
Method in brief: as §1

[3] = system: P. aeruginosa ATCC BAA-3107 (SEN) and P. aeruginosa LESB58 (MDR); assay: microbe, parasite or virus in culture; type: cell-based, Pseudomonas aeruginosa; conditions: for MIC: across three biological replicates; for MIC of ancestor: ancestor strain
Method in brief: as §1

[4] = system: A. baumannii ATCC 17978 (SEN) and A. baumannii ATCC BAA-1605 (MDR); assay: microbe, parasite or virus in culture; type: cell-based, Acinetobacter baumannii; conditions: for MIC: across three biological replicates
Method in brief: as §1

[5] = system: K. pneumoniae ATCC 10031 (SEN) and K. pneumoniae ATCC 700603 (MDR); assay: Frequency-of-resistance (FoR) assay, relative MIC of mutants; type: cell-based, Klebsiella pneumoniae; conditions: for MIC: Klebsiella pneumoniae, read-out: MIC of evolved line, Klebsiella pneumoniae ATCC 10031 (KP-SEN)
Method in brief: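 About 10^10 cells per strain were plated on MHB agar containing antibiotic at concentrations where the strain is susceptible, 48 h at 37 °C, in triplicate. Relative MIC = MICevolved/MICancestor.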

[6] = E. coli ATCC 25922 (EC-SEN), ancestor strain, sheet fig 2a
[7] = Escherichia coli ATCC 25922 (EC-SEN)
[8] = Escherichia coli NCTC 13846 (EC-MDR)
[9] = ancestor EC-SEN (Escherichia coli ATCC 25922)
[10] = Klebsiella pneumoniae ATCC 10031 (KP-SEN), ancestor strain, sheet fig 2a
[11] = Klebsiella pneumoniae ATCC 10031 (KP-SEN)
[12] = Klebsiella pneumoniae ATCC 700603 (KP-MDR)
[13] = ancestor KP-SEN (Klebsiella pneumoniae ATCC 10031)
[14] = Pseudomonas aeruginosa ATCC BAA-3107 (PA-SEN)
[15] = Pseudomonas aeruginosa LESB 58 (PA-MDR)
[16] = Acinetobacter baumannii ATCC 17978 (AB-SEN), ancestor strain, sheet fig 2a
[17] = Acinetobacter baumannii ATCC 17978 (AB-SEN)
[18] = Acinetobacter baumannii ATCC BAA 1605 (AB-MDR), ancestor strain, sheet fig 2a
[19] = Acinetobacter baumannii ATCC BAA-1605 (AB-MDR)
[20] = ancestor AB-SEN (Acinetobacter baumannii ATCC 17978)
[21] = FoR assay, Klebsiella pneumoniae ATCC 10031 (KP-SEN), evolved line 1
[22] = FoR assay, Klebsiella pneumoniae ATCC 10031 (KP-SEN), evolved line 2
[23] = FoR assay, Klebsiella pneumoniae ATCC 10031 (KP-SEN), evolved line 3
[24] = Klebsiella pneumoniae ATCC 10031 (KP-SEN), evolved line 1
[25] = Klebsiella pneumoniae ATCC 10031 (KP-SEN), evolved line 2
[26] = Klebsiella pneumoniae ATCC 10031 (KP-SEN), evolved line 3
[27] = Klebsiella pneumoniae ATCC 10031 (KP-SEN), evolved line 1 versus ancestor
[28] = Klebsiella pneumoniae ATCC 10031 (KP-SEN), evolved line 2 versus ancestor
[29] = Klebsiella pneumoniae ATCC 10031 (KP-SEN), evolved line 3 versus ancestor
[30] = E. coli NCTC 13846 (EC-MDR), ancestor strain, sheet fig 2a
[31] = Klebsiella pneumoniae ATCC 700603 (KP-MDR), ancestor strain, sheet fig 2a
[32] = ancestor KP-MDR (Klebsiella pneumoniae ATCC 700603)
[33] = Klebsiella pneumoniae ATCC 700603 (KP-MDR), evolved line 1
[34] = Klebsiella pneumoniae ATCC 700603 (KP-MDR), evolved line 2
[35] = Klebsiella pneumoniae ATCC 700603 (KP-MDR), evolved line 3
[36] = Klebsiella pneumoniae ATCC 700603 (KP-MDR), evolved line 1 versus ancestor
[37] = Klebsiella pneumoniae ATCC 700603 (KP-MDR), evolved line 2 versus ancestor
[38] = Klebsiella pneumoniae ATCC 700603 (KP-MDR), evolved line 3 versus ancestor

## CC(C)c1ccc(Cn2ccc3c4c(N)nc(NC5CC5)nc4ccc32)cc1 [SCH79797]
[1]; [6]
  MIC of ancestor: 4 µg/mL
[1]; [7]
  MIC: 4 µg/mL
[1]; [8]
  MIC: 16 µg/mL
[1]; [9]
  MIC of ancestor: 4 µg/mL
[2]; [10]
  MIC of ancestor: 4 µg/mL
[2]; [11]
  MIC: 4 µg/mL
[2]; [12]
  MIC: 32 µg/mL
[2]; [13]
  MIC of ancestor: 4 µg/mL
[3]; [14]
  MIC: 32 µg/mL
[3]; [15]
  MIC: >32 µg/mL
[4]; [16]
  MIC of ancestor: 4 µg/mL
[4]; [17]
  MIC: 4 µg/mL
[4]; [18]
  MIC of ancestor: 4 µg/mL
[4]; [19]
  MIC: 4 µg/mL
[4]; ancestor AB-MDR (Acinetobacter baumannii ATCC BAA 1605)
  MIC of ancestor: 4 µg/mL
[4]; [20]
  MIC of ancestor: 4 µg/mL
[5]; [21]
  Relative MIC: 1
[5]; [22]
  Relative MIC: 1
[5]; [23]
  Relative MIC: 1
[5]; [24]
  MIC of evolved line: 4 µg/mL
[5]; [25]
  MIC of evolved line: 4 µg/mL
[5]; [26]
  MIC of evolved line: 4 µg/mL
[5]; [27]
  Relative MIC: 1
[5]; [28]
  Relative MIC: 1
[5]; [29]
  Relative MIC: 1

## CC(C)C[C@@H]1NC(=O)[C@@H](Cc2ccccc2)NC(=O)[C@H](CCN)NC(=O)[C@@H](NC(=O)[C@H](CN)NC(=O)[C@@H](NC(=O)C[C@H](CN)c2cccc(Cl)c2)[C@@H](C)O)CCNC(=O)[C@H]([C@@H](C)O)NC(=O)[C@H](CCN)NC(=O)[C@H](CCN)NC1=O [SPR206] (X1-T[Dap][Dab][Dab][dF]L[Dab][Dab]T; lactam 3-C (inferred); N-terminus assumed)
[1]; E. coli ATCC 25922 (EC-SEN), ancestor strain
  MIC of ancestor: 0.25 µg/mL
[1]; [6]
  MIC of ancestor: 0.25 µg/mL
[1]; E. coli NCTC 13846 (EC-MDR), ancestor strain
  MIC of ancestor: 4 µg/mL
[1]; [30]
  MIC of ancestor: 4 µg/mL
[1]; [7]
  MIC: 0.25 µg/mL
[1]; [8]
  MIC: 4 µg/mL
[2]; [10]
  MIC of ancestor: 0.5 µg/mL
[2]; [11]
  MIC: 0.5 µg/mL
[2]; [31]
  MIC of ancestor: 0.5 µg/mL
[2]; [12]
  MIC: 0.5 µg/mL
[2]; [32]
  MIC of ancestor: 0.5 µg/mL
[2]; [13]
  MIC of ancestor: 0.5 µg/mL
[3]; P. aeruginosa ATCC BAA 3107 (PA-SEN)
  MIC of ancestor: 1 µg/mL
[3]; P. aeruginosa ATCC BAA 3107 (PA-SEN), sheet fig 2a
  MIC of ancestor: 1 µg/mL
[3]; P. aeruginosa LESB 58 (PA-MDR)
  MIC of ancestor: 4 µg/mL
[3]; P. aeruginosa LESB 58 (PA-MDR), sheet fig 2a
  MIC of ancestor: 4 µg/mL
[3]; [14]
  MIC: 1 µg/mL
[3]; [15]
  MIC: 4 µg/mL
[4]; A. baumannii ATCC 17978 (AB-SEN), ancestor strain
  MIC of ancestor: 0.125 µg/mL
[4]; A. baumannii ATCC BAA 1605 (AB-MDR), ancestor strain
  MIC of ancestor: 0.125 µg/mL
[4]; [16]
  MIC of ancestor: 0.125 µg/mL
[4]; [17]
  MIC: 0.125 µg/mL
[4]; [18]
  MIC of ancestor: 0.125 µg/mL
[4]; [19]
  MIC: 0.125 µg/mL
[4]; [20]
  MIC of ancestor: 0.125 µg/mL
[5]; [21]
  Relative MIC: 64
[5]; [22]
  Relative MIC: 1
[5]; [23]
  Relative MIC: 256
[5]; FoR assay, Klebsiella pneumoniae ATCC 700603 (KP-MDR), evolved line 1
  Relative MIC: 64
[5]; FoR assay, Klebsiella pneumoniae ATCC 700603 (KP-MDR), evolved line 2
  Relative MIC: 64
[5]; FoR assay, Klebsiella pneumoniae ATCC 700603 (KP-MDR), evolved line 3
  Relative MIC: 64
[5]; [24]
  MIC of evolved line: 32 µg/mL
[5]; [25]
  MIC of evolved line: 0.25 µg/mL
[5]; [26]
  MIC of evolved line: 128 µg/mL
[5]; [27]
  Relative MIC: 64
[5]; [28]
  Relative MIC: 1
[5]; [29]
  Relative MIC: 256
[5]; [33]
  MIC of evolved line: 32 µg/mL
[5]; [34]
  MIC of evolved line: 32 µg/mL
[5]; [35]
  MIC of evolved line: 32 µg/mL
[5]; [36]
  Relative MIC: 64
[5]; [37]
  Relative MIC: 64
[5]; [38]
  Relative MIC: 64

## C[C@@H](O)[C@H]1C(=O)N2C(C(=O)O)=C(S[C@H]3CC[S@@+]([O-])C3)S[C@H]12 [Sulopenem]
[1]; [30]
  MIC of ancestor: 0.0312 µg/mL
[1]; [7]
  MIC: 0.0625 µg/mL
[1]; [8]
  MIC: 0.03125 µg/mL
[1]; ancestor EC-MDR (Escherichia coli NCTC 13846)
  MIC of ancestor: 0.0312 µg/mL
[1]; [9]
  MIC of ancestor: 0.0312 µg/mL
[2]; [10]
  MIC of ancestor: 0.0312 µg/mL
[2]; [11]
  MIC: 0.03125 µg/mL
[2]; [31]
  MIC of ancestor: 0.5 µg/mL
[2]; [12]
  MIC: 0.5 µg/mL
[2]; [32]
  MIC of ancestor: 0.5 µg/mL
[2]; [13]
  MIC of ancestor: 0.0312 µg/mL
[3]; [14]
  MIC: 16 µg/mL
[3]; [15]
  MIC: >32 µg/mL
[4]; [16]
  MIC of ancestor: 1 µg/mL
[4]; [17]
  MIC: 1 µg/mL
[4]; [19]
  MIC: 32 µg/mL
[4]; [20]
  MIC of ancestor: 1 µg/mL
[5]; [24]
  MIC of evolved line: 0.0312 µg/mL
[5]; [25]
  MIC of evolved line: 0.0312 µg/mL
[5]; [26]
  MIC of evolved line: 0.0312 µg/mL
[5]; [27]
  Relative MIC: 1
[5]; [28]
  Relative MIC: 1
[5]; [29]
  Relative MIC: 1
[5]; [33]
  MIC of evolved line: 4 µg/mL
[5]; [34]
  MIC of evolved line: 4 µg/mL
[5]; [35]
  MIC of evolved line: 8 µg/mL
[5]; [36]
  Relative MIC: 8
[5]; [37]
  Relative MIC: 8
[5]; [38]
  Relative MIC: 16

## C[C@@H]1CN2c3c(cc4c(N5C(=O)OC[C@@H]5C)noc4c3F)CC3(C(=O)NC(=O)NC3=O)[C@H]2[C@H](C)O1 [Zoliflodacin]
[1]; Escherichia coli ATCC 25922 (EC-SEN), ancestor strain, sheet fig 2a
  MIC of ancestor: 2 µg/mL
[1]; Escherichia coli, Escherichia coli ATCC 25922 (EC-SEN)
  MIC: 2 µg/mL
[1]; Escherichia coli, Escherichia coli NCTC 13846 (EC-MDR)
  MIC: 16 µg/mL
[1]; [9]
  MIC of ancestor: 2 µg/mL
[2]; K. pneumoniae ATCC 10031 (KP-SEN), ancestor strain
  MIC of ancestor: 0.125 µg/mL
[2]; [10]
  MIC of ancestor: 0.125 µg/mL
[2]; Klebsiella pneumoniae, Klebsiella pneumoniae ATCC 10031 (KP-SEN)
  MIC: 0.125 µg/mL
[2]; Klebsiella pneumoniae, Klebsiella pneumoniae ATCC 700603 (KP-MDR)
  MIC: > 32 µg/mL
[3]; Pseudomonas aeruginosa, ATCCBAA3107, Pseudomonas aeruginosa ATCC BAA-3107 (PA-SEN)
  MIC: 8 µg/mL
[3]; Pseudomonas aeruginosa, ATCCBAA3107, Pseudomonas aeruginosa LESB 58 (PA-MDR)
  MIC: > 32 µg/mL
[4]; Acinetobacter baumannii, Acinetobacter baumannii ATCC 17978 (AB-SEN)
  MIC: 8 µg/mL
[4]; Acinetobacter baumannii, Acinetobacter baumannii ATCC BAA-1605 (AB-MDR)
  MIC: 16 µg/mL
[5]; [27]
  Relative MIC: 32
[5]; [28]
  Relative MIC: 128
[5]; [29]
  Relative MIC: 128
[5]; evolved line 1
  MIC: 4 µg/mL
[5]; evolved line 2
  MIC: 16 µg/mL
[5]; evolved line 3
  MIC: 16 µg/mL
